# The source made the active and inactive calls.
# What was measured:
# [1] = molecular target: T1, Dual specificity protein kinase TTK (Homo sapiens, UniProt P33981)
# T1 sequence (P33981 whole entry): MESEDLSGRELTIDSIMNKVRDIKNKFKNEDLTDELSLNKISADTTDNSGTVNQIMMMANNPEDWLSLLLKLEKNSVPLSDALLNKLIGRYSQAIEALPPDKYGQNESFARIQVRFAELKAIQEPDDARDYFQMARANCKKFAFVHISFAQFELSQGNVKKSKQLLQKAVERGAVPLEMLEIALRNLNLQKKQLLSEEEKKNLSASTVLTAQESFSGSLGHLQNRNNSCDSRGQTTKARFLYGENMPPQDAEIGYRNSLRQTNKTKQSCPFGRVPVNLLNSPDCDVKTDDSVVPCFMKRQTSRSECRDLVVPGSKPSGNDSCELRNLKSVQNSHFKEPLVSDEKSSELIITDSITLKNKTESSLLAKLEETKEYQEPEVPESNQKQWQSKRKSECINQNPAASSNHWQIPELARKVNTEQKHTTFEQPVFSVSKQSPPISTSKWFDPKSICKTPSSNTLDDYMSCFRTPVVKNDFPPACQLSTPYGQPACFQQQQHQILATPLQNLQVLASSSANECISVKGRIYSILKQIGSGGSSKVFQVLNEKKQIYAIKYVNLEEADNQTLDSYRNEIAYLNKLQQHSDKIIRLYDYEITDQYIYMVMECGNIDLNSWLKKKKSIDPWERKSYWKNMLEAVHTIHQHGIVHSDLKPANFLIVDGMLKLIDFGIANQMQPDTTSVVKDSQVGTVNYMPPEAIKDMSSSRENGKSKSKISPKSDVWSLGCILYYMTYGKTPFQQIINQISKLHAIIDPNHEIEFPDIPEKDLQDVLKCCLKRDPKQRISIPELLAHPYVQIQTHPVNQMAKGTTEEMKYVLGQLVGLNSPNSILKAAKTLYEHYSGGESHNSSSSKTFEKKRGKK
# Ephrin type-A receptor 1 = molecular target: T2, Ephrin type-A receptor 1 (Homo sapiens, UniProt P21709)
# T2 sequence (P21709 whole entry): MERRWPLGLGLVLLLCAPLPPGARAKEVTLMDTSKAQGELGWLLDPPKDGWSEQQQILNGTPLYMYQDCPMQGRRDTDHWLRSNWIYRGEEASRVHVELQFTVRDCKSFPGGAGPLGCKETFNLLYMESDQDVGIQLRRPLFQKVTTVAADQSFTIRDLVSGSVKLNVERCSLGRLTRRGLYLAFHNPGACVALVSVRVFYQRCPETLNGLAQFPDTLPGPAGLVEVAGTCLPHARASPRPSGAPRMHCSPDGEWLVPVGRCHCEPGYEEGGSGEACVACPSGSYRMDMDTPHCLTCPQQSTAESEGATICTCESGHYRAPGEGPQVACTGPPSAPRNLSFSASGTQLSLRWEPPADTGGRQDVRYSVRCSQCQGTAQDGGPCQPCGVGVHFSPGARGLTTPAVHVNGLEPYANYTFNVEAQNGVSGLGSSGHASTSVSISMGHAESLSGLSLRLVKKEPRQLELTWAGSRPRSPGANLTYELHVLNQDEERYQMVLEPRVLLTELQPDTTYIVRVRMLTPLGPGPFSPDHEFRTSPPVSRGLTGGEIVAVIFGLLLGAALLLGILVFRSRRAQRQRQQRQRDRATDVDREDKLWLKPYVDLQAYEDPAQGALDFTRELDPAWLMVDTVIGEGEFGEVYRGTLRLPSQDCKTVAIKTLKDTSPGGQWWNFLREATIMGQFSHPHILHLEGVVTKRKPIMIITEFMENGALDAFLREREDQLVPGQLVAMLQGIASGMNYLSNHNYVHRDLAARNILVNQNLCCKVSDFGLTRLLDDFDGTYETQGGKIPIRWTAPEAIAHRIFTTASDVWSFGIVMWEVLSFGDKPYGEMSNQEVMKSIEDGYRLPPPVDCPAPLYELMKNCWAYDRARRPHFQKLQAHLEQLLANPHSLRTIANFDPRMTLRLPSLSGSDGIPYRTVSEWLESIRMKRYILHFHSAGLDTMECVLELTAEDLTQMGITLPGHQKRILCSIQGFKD
# [2] = molecular target: T3, Receptor-type tyrosine-protein kinase FLT3 (Homo sapiens, UniProt P36888)
# T3 sequence (P36888 whole entry): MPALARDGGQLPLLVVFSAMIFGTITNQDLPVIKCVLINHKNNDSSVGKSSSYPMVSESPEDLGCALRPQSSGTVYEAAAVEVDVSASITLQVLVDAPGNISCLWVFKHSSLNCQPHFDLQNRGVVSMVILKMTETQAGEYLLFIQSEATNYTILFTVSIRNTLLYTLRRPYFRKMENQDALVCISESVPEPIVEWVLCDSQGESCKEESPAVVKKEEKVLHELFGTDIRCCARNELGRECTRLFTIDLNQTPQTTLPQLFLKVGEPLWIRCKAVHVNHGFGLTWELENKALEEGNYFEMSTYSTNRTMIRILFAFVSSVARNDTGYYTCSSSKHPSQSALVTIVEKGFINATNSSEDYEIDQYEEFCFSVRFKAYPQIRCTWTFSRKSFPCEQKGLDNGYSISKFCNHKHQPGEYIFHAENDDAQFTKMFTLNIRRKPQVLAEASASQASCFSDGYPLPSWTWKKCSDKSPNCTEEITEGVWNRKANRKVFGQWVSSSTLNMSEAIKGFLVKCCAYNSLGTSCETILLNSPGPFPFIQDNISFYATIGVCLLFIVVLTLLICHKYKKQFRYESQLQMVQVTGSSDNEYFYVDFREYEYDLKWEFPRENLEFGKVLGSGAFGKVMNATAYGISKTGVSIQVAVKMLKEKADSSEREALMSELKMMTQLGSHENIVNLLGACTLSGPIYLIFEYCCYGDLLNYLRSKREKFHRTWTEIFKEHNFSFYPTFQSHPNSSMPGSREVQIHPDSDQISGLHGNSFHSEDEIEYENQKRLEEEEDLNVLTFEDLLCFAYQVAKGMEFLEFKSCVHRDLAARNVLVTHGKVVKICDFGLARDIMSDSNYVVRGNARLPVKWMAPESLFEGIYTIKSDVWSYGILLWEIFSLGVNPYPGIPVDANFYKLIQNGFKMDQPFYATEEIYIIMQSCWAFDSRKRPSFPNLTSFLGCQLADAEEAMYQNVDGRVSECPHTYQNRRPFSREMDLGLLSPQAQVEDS
# [3] = molecular target: Cell division cycle 7-related protein kinase (Homo sapiens, UniProt O00311)
# Cell division cycle 7-related protein kinase, sequence (O00311 whole entry): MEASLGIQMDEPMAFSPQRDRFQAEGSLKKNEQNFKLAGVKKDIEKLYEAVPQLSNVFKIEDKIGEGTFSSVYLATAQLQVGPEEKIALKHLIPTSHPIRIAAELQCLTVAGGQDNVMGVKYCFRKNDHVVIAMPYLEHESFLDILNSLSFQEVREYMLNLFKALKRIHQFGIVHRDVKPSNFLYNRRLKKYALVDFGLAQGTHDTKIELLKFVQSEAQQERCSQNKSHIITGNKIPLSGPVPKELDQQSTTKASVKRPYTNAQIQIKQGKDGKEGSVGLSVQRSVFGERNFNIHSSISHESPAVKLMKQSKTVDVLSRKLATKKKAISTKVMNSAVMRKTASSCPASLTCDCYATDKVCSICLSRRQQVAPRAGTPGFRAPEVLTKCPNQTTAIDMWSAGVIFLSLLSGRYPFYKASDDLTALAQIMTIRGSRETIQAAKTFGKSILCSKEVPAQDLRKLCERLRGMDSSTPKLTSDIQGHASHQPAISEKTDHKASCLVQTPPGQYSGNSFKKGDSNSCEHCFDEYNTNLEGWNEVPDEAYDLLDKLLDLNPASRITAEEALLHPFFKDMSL
# [4] = molecular target: Serine/threonine-protein kinase N3 (Homo sapiens, UniProt Q6P5Z2)
# Serine/threonine-protein kinase N3, sequence (Q6P5Z2 whole entry): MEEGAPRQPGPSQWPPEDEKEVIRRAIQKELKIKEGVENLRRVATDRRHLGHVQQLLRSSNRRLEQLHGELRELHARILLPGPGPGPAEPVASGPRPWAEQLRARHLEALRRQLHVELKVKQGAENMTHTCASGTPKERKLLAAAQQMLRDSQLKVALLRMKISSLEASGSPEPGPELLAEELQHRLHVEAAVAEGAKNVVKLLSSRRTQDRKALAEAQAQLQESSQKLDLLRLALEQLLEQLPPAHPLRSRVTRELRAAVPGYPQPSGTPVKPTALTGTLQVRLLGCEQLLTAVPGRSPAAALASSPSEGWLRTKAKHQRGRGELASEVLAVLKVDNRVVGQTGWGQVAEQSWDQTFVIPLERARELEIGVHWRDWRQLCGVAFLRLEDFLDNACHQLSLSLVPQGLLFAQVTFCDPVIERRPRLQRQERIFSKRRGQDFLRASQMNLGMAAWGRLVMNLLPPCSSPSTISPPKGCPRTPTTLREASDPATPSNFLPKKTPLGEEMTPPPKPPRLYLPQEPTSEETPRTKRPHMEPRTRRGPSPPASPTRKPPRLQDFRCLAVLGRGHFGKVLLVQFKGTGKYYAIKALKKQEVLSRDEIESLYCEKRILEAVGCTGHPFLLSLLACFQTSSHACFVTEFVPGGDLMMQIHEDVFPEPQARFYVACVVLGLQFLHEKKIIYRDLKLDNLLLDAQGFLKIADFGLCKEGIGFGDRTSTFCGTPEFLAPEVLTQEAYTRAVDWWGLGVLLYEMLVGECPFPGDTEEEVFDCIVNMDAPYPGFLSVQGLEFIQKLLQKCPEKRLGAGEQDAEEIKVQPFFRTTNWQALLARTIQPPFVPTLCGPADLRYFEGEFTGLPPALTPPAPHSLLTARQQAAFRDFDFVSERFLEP
# [5] = molecular target: MAP kinase-activated protein kinase 3 (Homo sapiens, UniProt Q16644)
# MAP kinase-activated protein kinase 3, sequence (Q16644 whole entry): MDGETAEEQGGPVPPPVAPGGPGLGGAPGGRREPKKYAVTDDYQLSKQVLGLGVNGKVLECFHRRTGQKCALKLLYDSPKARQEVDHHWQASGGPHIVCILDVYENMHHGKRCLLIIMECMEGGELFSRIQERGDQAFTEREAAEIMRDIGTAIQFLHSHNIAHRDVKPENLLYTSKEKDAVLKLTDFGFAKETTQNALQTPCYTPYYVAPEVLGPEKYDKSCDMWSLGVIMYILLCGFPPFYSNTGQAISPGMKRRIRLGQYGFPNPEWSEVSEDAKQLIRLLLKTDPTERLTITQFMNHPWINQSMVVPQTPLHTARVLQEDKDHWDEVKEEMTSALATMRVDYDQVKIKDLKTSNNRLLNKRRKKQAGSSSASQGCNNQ
# Note: in the data inactive means no Kd found up to 30 µM.
Structure (SMILES),Kd [1],Kd (Ephrin type-A receptor 1),Kd [2],Kd [3],Kd [4],Kd [5]
Cn1cc(-c2[nH]c3cc(NC(=O)[C@H](N)C4CCCCC4)cc4c3c2C=NNC4=O)cn1,> 30 µM (inactive),> 30 µM (inactive),0.05 µM (active),> 30 µM (inactive),> 30 µM (inactive),
CN(C)C/C=C/C(=O)Nc1cc2c(Nc3ccc(F)c(Cl)c3)ncnc2cc1O[C@H]1CCOC1 [AFATINIB],,,,> 30 µM (inactive),> 30 µM (inactive),> 30 µM (inactive)
S=C(NCc1ccc2c(c1)OCO2)N1CCN(c2ncnc3c2oc2ccccc23)CC1 [AMUVATINIB],,,> 30 µM (inactive),> 30 µM (inactive),> 30 µM (inactive),> 30 µM (inactive)
CCN(CCCOc1ccc2c(Nc3cc(CC(=O)Nc4cccc(F)c4)n[nH]3)ncnc2c1)CCOP(=O)(O)O [BARASERTIB],,> 30 µM (inactive),,,,> 30 µM (inactive)
COc1cc2ncnc(Nc3ccc(F)c(Cl)c3)c2cc1NC(=O)/C=C/CN1CCCCC1 [DACOMITINIB ANHYDROUS],,,> 30 µM (inactive),> 30 µM (inactive),,> 30 µM (inactive)
Cn1c(=O)n(-c2ccc(C(C)(C)C#N)cc2)c2c3cc(-c4cnc5ccccc5c4)ccc3ncc21 [DACTOLISIB],> 30 µM (inactive),> 30 µM (inactive),,,> 30 µM (inactive),> 30 µM (inactive)
CNC(=O)c1ccc(Nc2ncc(C(F)(F)F)c(NCc3nccnc3N(C)S(C)(=O)=O)n2)cc1 [DEFACTINIB],> 30 µM (inactive),> 30 µM (inactive),0.34 µM (active),> 30 µM (inactive),> 30 µM (inactive),
C#Cc1cccc(Nc2ncnc3cc4c(cc23)OCCOCCOCCO4)c1 [ICOTINIB],,> 30 µM (inactive),> 30 µM (inactive),> 30 µM (inactive),> 30 µM (inactive),> 30 µM (inactive)
O=C(NOC[C@H](O)CO)c1ccc(F)c(F)c1Nc1ccc(I)cc1F [MIRDAMETINIB],> 30 µM (inactive),> 30 µM (inactive),> 30 µM (inactive),,> 30 µM (inactive),> 30 µM (inactive)
C=CC(=O)Nc1cc(Nc2nccc(-c3cn(C)c4ccccc34)n2)c(OC)cc1N(C)CCN(C)C [OSIMERTINIB],,> 30 µM (inactive),> 30 µM (inactive),,> 30 µM (inactive),> 30 µM (inactive)
FC(F)(F)c1ccc(CNc2ccc(Cc3c[nH]c4ncc(Cl)cc34)cn2)cn1 [PEXIDARTINIB],> 30 µM (inactive),> 30 µM (inactive),,> 30 µM (inactive),,> 30 µM (inactive)
COCCN1CCN(Cc2ccc(-c3n[nH]c4c3C(=O)c3c(NC(=O)NN5CCOCC5)cccc3-4)cc2)CC1 [RGB-286638],,> 30 µM (inactive),0.323 µM (active),> 30 µM (inactive),,> 30 µM (inactive)
O=C(O)c1ccc2c(c1)nc(Nc1cccc(Cl)c1)c1ccncc12 [SILMITASERTIB],> 30 µM (inactive),,,,> 30 µM (inactive),0.026 µM (active)
CN1CCN(c2nc(C3=C(c4c[nH]c5ccccc45)C(=O)NC3=O)c3ccccc3n2)CC1 [SOTRASTAURIN],> 30 µM (inactive),> 30 µM (inactive),> 30 µM (inactive),> 30 µM (inactive),> 30 µM (inactive),
O[C@H]1CC[C@H](Nc2ncc3nc(Nc4c(F)cc(F)cc4F)n([C@H]4CCOC4)c3n2)CC1 [TANZISERTIB],> 30 µM (inactive),> 30 µM (inactive),> 30 µM (inactive),,> 30 µM (inactive),> 30 µM (inactive)
Cc1cc(-c2cc(OC(=O)c3ccccc3)ccc2Cl)cc2nnc(Nc3ccc(OCCN4CCCC4)cc3)nc12 [TG100-801],> 30 µM (inactive),,> 30 µM (inactive),,> 30 µM (inactive),> 30 µM (inactive)

# Second part, the molecule after the results:
Kd [1],Kd (Ephrin type-A receptor 1),Kd [2],Kd [3],Kd [4],Kd [5],Structure (SMILES)
,> 30 µM (inactive),> 30 µM (inactive),,> 30 µM (inactive),> 30 µM (inactive),COc1ccc2c(OCc3nnc4ccc(-c5ccccc5)nn34)ccnc2c1 [AMG-208]
,> 30 µM (inactive),1.68 µM (active),> 30 µM (inactive),> 30 µM (inactive),> 30 µM (inactive),Cc1cc(Nc2nc(N[C@@H](C)c3ncc(F)cn3)ncc2Cl)n[nH]1 [AZD-1480]
,,,,,> 30 µM (inactive),C[C@@]1(C(=O)Nc2ccc(F)nc2)CCCN1c1nc(Nc2cc(C3CC3)n[nH]2)c2cccn2n1 [BMS-754807]
> 30 µM (inactive),> 30 µM (inactive),> 30 µM (inactive),,> 30 µM (inactive),> 30 µM (inactive),c1cc(OCCN2CCCCC2)cc(-c2n[nH]c3ccc(-c4nc[nH]n4)cc23)c1 [CC-401]
,> 30 µM (inactive),> 30 µM (inactive),,,> 30 µM (inactive),COc1cc2ncnc3c2cc1OCCCCCN(C)Cc1ccc(Br)cc1N3 [JNJ-26483327]
,,> 30 µM (inactive),,,> 30 µM (inactive),COc1cccc2cc(-c3nc([C@H]4CC[C@H](C(=O)O)CC4)n4ncnc(N)c34)[nH]c12 [OSI-027]
> 30 µM (inactive),> 30 µM (inactive),> 30 µM (inactive),> 30 µM (inactive),> 30 µM (inactive),,O=C(Nc1ccc(OC(F)(F)F)cc1)c1sccc1NCc1ccnc2ccccc12 [OSI-930]
> 30 µM (inactive),> 30 µM (inactive),> 30 µM (inactive),,> 30 µM (inactive),> 30 µM (inactive),Cn1c(=O)c(F)c(Nc2ccc(I)cc2F)c2c(=O)n(C[C@@H](O)CO)cnc21 [TAK-733]
,> 30 µM (inactive),> 30 µM (inactive),,> 30 µM (inactive),> 30 µM (inactive),NC(=O)c1ccc(N(C(N)=O)c2c(F)cccc2F)nc1-c1ccc(F)cc1F [VX-702]
